# Laboratory results: US8835469B2 (Cadila Healthcare Limited, priority 2009, dated 2014)
# pEC50: −log10 of the molar value.
# What was measured:
# [1] = target: T1, glucokinase (GK) enzyme (Homo sapiens, UniProt P35557); test: In-vitro glucokinase (GK) activation assay (coupled with glucose-6-phosphate dehydrogenase, absorbance at 340); assay type: biochemical; settings: glucose 2.5 mM; for activity at 0.1 µM: 0.1 uM compound; for activity at 0.1 µM / activity at 1 µM / activity at 5 µM / activity at 10 µM: read-out: % of GK activity wrt DMSO; for activity at 1 µM: 1 uM compound; for activity at 5 µM: 5 uM compound; for activity at 10 µM: 10 uM compound; for pEC50: GK enzyme 0.2 units, ATP 1 mM
# T1 sequence (P35557 1-465): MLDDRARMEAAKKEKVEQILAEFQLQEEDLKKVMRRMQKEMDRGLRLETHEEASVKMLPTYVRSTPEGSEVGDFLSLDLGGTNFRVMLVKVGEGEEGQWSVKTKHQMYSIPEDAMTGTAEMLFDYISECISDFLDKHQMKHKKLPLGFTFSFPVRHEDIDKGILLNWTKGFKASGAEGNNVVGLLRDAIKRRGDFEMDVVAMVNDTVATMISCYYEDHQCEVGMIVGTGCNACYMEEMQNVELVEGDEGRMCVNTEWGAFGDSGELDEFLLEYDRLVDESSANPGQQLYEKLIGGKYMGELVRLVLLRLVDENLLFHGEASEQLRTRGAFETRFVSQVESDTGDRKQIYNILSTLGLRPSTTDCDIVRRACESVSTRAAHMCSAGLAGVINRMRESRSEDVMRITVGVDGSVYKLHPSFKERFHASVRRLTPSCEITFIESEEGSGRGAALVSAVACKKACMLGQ
# Protocol: The compound of the invention was incubated with glucokinase (GK) enzyme (0.2 units) for 10 minutes in assay buffer at 26° C. After incubation, addition of glucose-6-phosphate dehydrogenase (2.5 units), ATP (1 mM) and glucose (2.5 mM). Absorbance is measured at 340 nm for 15 minutes with 10 second interval using UV transparent plate in kinetic mode on Spectramax-190 at 30° C.
# [2] = tested on: Male C57 mice; test: Oral glucose tolerance test (OGTT), overnight fasted; assay type: in vivo; settings: for % change in glucose levels Vs Control: treated at −30 min, oral glucose load 3 g/kg at 0 min; for % change in glucose levels Vs Control, Mean: Mean over the time points, oral glucose load 3 g/kg
# Protocol: Effect of Glucokinase Activators (GKAs) of the Present Invention on Glucose Reduction Determined by Oral Glucose Tolerence Test (OGTT):
# Male C57 mice, aged 8-10 weeks were fasted overnight and subjected to the treatment of selected GK activator at time denoted as −30 min. At time 0 min, mice were given oral glucose load of 3 g/kg, and the glucose excursion was observed upto 120 min. The percentage change against the change in glucose levels of control are mentioned in the table 2.
Compound,activity at 0.1 µM [1] [%],activity at 1 µM [1] [%],activity at 5 µM [1] [%],activity at 10 µM [1] [%],pEC50 [1],% change in glucose levels Vs Control ([2]; 0 min Vs −30 min) [%],% change in glucose levels Vs Control ([2]; 30 min Vs −30 min) [%],% change in glucose levels Vs Control ([2]; 60 min Vs −30 min) [%],% change in glucose levels Vs Control ([2]; 120 min Vs −30 min) [%],"% change in glucose levels Vs Control, Mean [2] [%]"
"Cc1csc(NC(=O)c2cc(Oc3ccc(-c4nnc(C)o4)cc3)cc(OC3CCN(C)C3=O)c2)n1 (stereo not shown) [Example 13, 3-(4-(5-Methyl-1,3,4-oxadiazol-2-yl)phenoxy)-5-(1-methyl-2-oxopyrrolidin-3-yloxy)-N-(4-methylthiazol-2-yl)benzamide]",234,302,320,318,7.13,−38.7 ± 3.5,−34.5 ± 9.3,−48.2 ± 7.5,−60.5 ± 4.5,−45.5
"Cc1nnc(-c2ccc(Oc3cc(OC4CCN(C)C4=O)cc(C(=O)Nc4nccs4)c3)cc2)o1 (stereo not shown) [Example 1, 3-(4-(5-Methyl-1,3,4-oxadiazol-2-yl)phenoxy)-5-(1-methyl-2-oxopyrrolidin-3-yloxy)-N-(thiazol-2-yl)benzamide]",276,309,316,309,7.68,−32.7 ± 2.8,3.3 ± 9.7,−39.5 ± 7.0,−24.3 ± 9.0,−23.3
"Cc1nnc(-c2ccc(Oc3cc(OC4CCN(C)C4=O)cc(C(=O)Nc4nc(-c5ccccc5)cs4)c3)cc2)o1 (stereo not shown) [Example 37, 3-(4-(5-Methyl-1,3,4-oxadiazol-2-yl)phenoxy)-5-((1-methyl-2-oxopyrrolidin-3-yl)oxy)-N-(4-phenylthiazol-2-yl)benzamide]",107,151,290,329,–,11.9 ± 8.2,−26.5 ± 12.8,−43.5 ± 3.8,−24.9 ± 5.3,−17.0
"Cc1nnc(-c2ccc(Oc3cc(O[C@H]4CCN(C)C4=O)cc(C(=O)Nc4nccs4)c3)cc2)o1 [Example 68, (S)-3-(4-(5-Methyl-1,3,4-oxadiazol-2-yl)phenoxy)-5-((1-methyl-2-oxopyrrolidin-3-yl)oxy)-N-(thiazol-2-yl)benzamide]",144,238,255,271,7.47,−46.7 ± 0.8,−25.6 ± 7.2,−51.5 ± 4.9,−58.2 ± 6.7,−46.6
"Cc1nnc(-c2ccc(Oc3cc(OC4CCN(C)C4=O)cc(C(=O)Nc4ncc(C)s4)c3)cc2)o1 (stereo not shown) [Example 2, 3-(4-(5-Methyl-1,3,4-oxadiazol-2-yl)phenoxy)-5-(1-methyl-2-oxopyrrolidin-3-yloxy)-N-(5-methylthiazol-2-yl)benzamide]",205,227,233,236,7.40,−34.5 ± 3.2,−13.5 ± 8.8,−49.6 ± 11.2,−53.2 ± 3.1,−37.7
